The structures appear in SMILES notation.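 Grown in 96-well plates, cells were treated for 48 hours with each compound at five concentrations. Insufficient inhibition: endpoint recorded as highest concentration tested. GI50 marks 50% less growth. TGI: total growth inhibition.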

Common to all, as to test: NCI tumour cell line growth inhibition, 48 h
Assay [1] deals with NCI-H226 lung.
Assay [2] concerns A498 renal.
For assay [3], the system named is HT29 colon.
Assay [4] concerns HCC-2998 colon.
The subject of assay [5] is BT-549 breast.
The subject of assay [6] is OVCAR-3 ovarian.
In assay [7] the test system is MALME-3M melanoma.
Assay [8] relates to NCI-H23 lung.

For the compound `CCCN1CCC(Oc2cc(Nc3nc(Nc4cccc(F)c4C(N)=O)c4cc[nH]c4n3)c(OC)cc2Cl)CC1`, the GI50 is 3.64 µM in assay [1]; 2.95 µM in assay [2]; 0.565 µM in assay [3]; 0.994 µM in assay [4]; 3.75 µM in assay [5]; 4.18 µM in assay [6]. Further, the GI50 in assay [7] was 3.81 µM; in assay [8] it was 3.49 µM. Besides, the TGI in assay [1] turned out to be 10.7 µM; in assay [2], 6.47 µM; in assay [3], 1.6 µM; in assay [4], 3.84 µM; in assay [5], 7.36 µM; in assay [6] it was 7.99 µM. Also, the results for the TGI in assay [7] and in assay [8] were 8.4 µM and 8.26 µM, respectively.

Turning to `Clc1cccc(-c2cc(-c3ccc4c(c3)OCCO4)[nH]n2)c1`, the GI50 is 29.5 µM in assay [1]; 1.73 µM in assay [2]; 0.952 µM in assay [3]; 7.26 µM in assay [4]; 6.32 µM in assay [5]; 1.95 µM in assay [6]. Besides, the results for the GI50 in assay [7] and in assay [8] were 5.22 µM and 8.66 µM, respectively. Further, the TGI worked out at 92.1 µM in assay [1]; 18.5 µM in assay [2]; 31.6 µM in assay [3]; 51.4 µM in assay [4]; 47 µM in assay [5]; 31.3 µM in assay [6]. Further, the TGI in assay [7] came out at 47.5 µM; in assay [8] it was 57.4 µM.

Take `CN1CCN(c2cc(F)c(NC3=C(Cl)C(=O)c4ncccc4C3=O)c(F)c2)CC1`: the GI50 was 15.7 µM in assay [1]; 10.9 µM in assay [2]; 2 µM in assay [3]; 1.84 µM in assay [4]; 1.63 µM in assay [5]; 0.539 µM in assay [6]. Moreover, the GI50 in assay [7] was 1.65 µM; in assay [8], 1.4 µM. Moreover, the TGI in assay [1] is 39.5 µM; in assay [2], 23.7 µM; in assay [3], 4.04 µM; in assay [4] it was 3.55 µM; in assay [5], 3.06 µM; in assay [6], 2 µM. Further, the TGI in assay [7] turned out to be 3.12 µM; in assay [8] it was 3.01 µM.

In the case of `O=C(O)C1CCCN1` (stereo not given), the TGI in assay [1], in assay [2], in assay [3], in assay [4], in assay [5] and in assay [6] was over 100 µM throughout. For the same compound, the TGI in assay [7] and in assay [8] was over 100 µM throughout.

For `N#Cc1nc2cc(Cl)c(Cl)cc2nc1-c1ccc(Cl)cc1`, the GI50 in assay [1] is 21.7 µM; in assay [2], 21.5 µM; in assay [3], over 100 µM; in assay [4], 0.165 µM; in assay [5], over 100 µM; in assay [6], 1.89 µM. Moreover, the GI50 in assay [7] was over 42.2 µM; in assay [8], over 60.5 µM. Moreover, the TGI in assay [1] was over 61.6 µM; in assay [2], 60.7 µM; in assay [3] it was over 100 µM; in assay [4], 18.2 µM; in assay [5], over 100 µM; in assay [6] it was over 47.8 µM. Further, the TGI in assay [7] and in assay [8] was over 100 µM each time.

Turning to `Cc1cc(NC(=O)NCCCOc2ccc(N3C(N)=NC(N)=NC3(C)C)cc2Cl)ccc1S(=O)(=O)F`, the GI50 in assay [1] was 12.6 µM; in assay [2], 7.94 µM; in assay [3], 0.333 µM; in assay [4], 2.06 µM; in assay [5], 4.85 µM; in assay [6], 2.79 µM. In addition, the GI50 was 1.84 µM in assay [7] and 0.951 µM in assay [8]. Further, the TGI in assay [1] is over 100 µM; in assay [2], 99.9 µM; in assay [3], 53.9 µM; in assay [4], over 69.2 µM; in assay [5] it was 21.7 µM; in assay [6], over 53.9 µM. Besides, the TGI in assay [7] was 25.4 µM; in assay [8], over 66.8 µM.

As for `Clc1ccc2c(NCCCCNc3nc(N4CCOCC4)nc4ccccc34)ccnc2c1`, the GI50 is 1.72 µM in assay [1]; 1.83 µM in assay [2]; 2.61 µM in assay [3]; 3.81 µM in assay [4]; 2.96 µM in assay [5]; 1.93 µM in assay [6]. The GI50 in assay [7] was 2.05 µM; in assay [8], 5.68 µM. Also, the TGI came to 3.68 µM in assay [1]; 4.28 µM in assay [2]; 7.14 µM in assay [3]; 14 µM in assay [4]; 9.42 µM in assay [5]; 3.7 µM in assay [6]. In addition, the TGI was determined as 3.89 µM in assay [7] and 23.2 µM in assay [8].

In the case of `CCn1c(-c2nonc2N)nc2cnc(Oc3cccc(NC(=O)c4ccc(OCCN5CCOCC5)cc4)c3)cc21`, the GI50 was 1.24 µM in assay [1]; 1.05 µM in assay [2]; 10.7 µM in assay [3]; 15.2 µM in assay [4]; 0.438 µM in assay [5]; 7.17 µM in assay [6]. Further, the GI50 in assay [7] was 4.14 µM; in assay [8], 4.9 µM. Further, the TGI in assay [1] is over 25 µM; in assay [2] it was over 23.7 µM; in assay [3] it was over 25 µM; in assay [4], over 25 µM; in assay [5] it was 15.3 µM; in assay [6] it was over 25 µM. In addition, the TGI in assay [7] and in assay [8] was over 25 µM each time.

For the compound `COc1ccc2c(c1)c(-c1ccc(-c3cn(C)c4ccc(OC)cc34)s1)cn2C`, the GI50 in assay [1], in assay [2], in assay [3], in assay [4], in assay [5] and in assay [6] was over 100 µM throughout. Also, the GI50 in assay [7] and in assay [8] was over 100 µM in each case. Besides, the TGI in assay [1], in assay [2], in assay [3], in assay [4], in assay [5] and in assay [6] was over 100 µM in each case. Moreover, the TGI in assay [7] and in assay [8] was over 100 µM in each case.

On to `CC(NC(=O)c1ccc(Cl)c(Cl)c1)c1ccc(-c2ccccc2)cc1` (stereo not given), for which the TGI in assay [1] was 78.7 µM; in assay [2], over 100 µM; in assay [3], over 100 µM; in assay [4], over 100 µM; in assay [5] it was over 100 µM; in assay [6], 66.2 µM. In addition, the figures for the TGI in assay [7] and in assay [8] were 49.1 µM and over 100 µM, respectively.

Turning to `C=C(C)[C@@H]1CC[C@]2(C(=O)OC)CC[C@]3(C)[C@H](CC[C@@H]4[C@@](C)(CCc5nn[nH]n5)[C@H](C(=C)C)CC[C@]43C)[C@@H]12`, the GI50 was 15.3 µM in assay [1]; 22.4 µM in assay [2]; 20.6 µM in assay [3]; 15.8 µM in assay [4]; 33.2 µM in assay [5]; 13.5 µM in assay [6]. In addition, the GI50 was 16.3 µM in assay [7] and 16.4 µM in assay [8]. Also, the TGI is 47.7 µM in assay [1]; 60.7 µM in assay [2]; 73.3 µM in assay [3]; 30.5 µM in assay [4]; over 100 µM in assay [5]; 27 µM in assay [6]. Also, the TGI in assay [7] turned out to be 31.7 µM; in assay [8], 39.4 µM.

On to `COc1ccc(-c2nn3ncccc3c2-c2ccnc(Nc3ccc(F)c(F)c3)n2)cc1`, for which the GI50 in assay [1] was 13.9 µM; in assay [2], 3.96 µM; in assay [3] it was 5.43 µM; in assay [4] it was 6.72 µM; in assay [5], 15 µM; in assay [6], 11.8 µM. The GI50 in assay [7] was 11.3 µM; in assay [8], 11.5 µM. Moreover, the TGI in assay [1] is over 25 µM; in assay [2], over 23 µM; in assay [3], over 25 µM; in assay [4], over 25 µM; in assay [5], over 25 µM; in assay [6] it was over 25 µM. The TGI in assay [7] and in assay [8] was over 25 µM throughout.

In the case of `Cc1ccc(/C=C/C(=O)c2ccc(F)cc2)s1`, the GI50 in assay [1] was 10.4 µM; in assay [2], 2.69 µM; in assay [3] it was 2.09 µM; in assay [4], 2.2 µM; in assay [5], 3.02 µM; in assay [6] it was 1.8 µM. The values for the GI50 in assay [7] and in assay [8] were 1.74 µM and 3.67 µM, respectively. For the same compound, the TGI in assay [1] was 24 µM; in assay [2], 11.1 µM; in assay [3] it was 4.11 µM; in assay [4] it was 5.14 µM; in assay [5], 8.49 µM; in assay [6] it was 3.29 µM. Further, the TGI in assay [7] was determined as 3.74 µM; in assay [8], 16.5 µM.

`Cc1ccc(NC(=O)c2ccoc2)cc1-c1ccc(C(=O)NCC2CC2)cc1`: the GI50 in assay [1] is over 19.5 µM; in assay [2], over 11.3 µM; in assay [3], over 25 µM; in assay [4] it was over 25 µM; in assay [5], over 19.7 µM; in assay [6], over 17.9 µM. The values for the GI50 in assay [7] and in assay [8] were over 12.9 µM and over 25 µM, respectively. Also, the TGI in assay [1], in assay [2], in assay [3], in assay [4], in assay [5] and in assay [6] was over 25 µM throughout. Further, the TGI in assay [7] and in assay [8] was over 25 µM in each case.

As for `CC(C)Cn1cnc2c(N)nc3ccccc3c21`, the GI50 in assay [1] is 73.6 µM; in assay [2], 47.8 µM; in assay [3], 28.8 µM; in assay [4] it was over 63.5 µM; in assay [5] it was 43.8 µM; in assay [6], over 92.9 µM. Besides, the GI50 was over 100 µM in assay [7] and 37.1 µM in assay [8]. The TGI in assay [1], in assay [2], in assay [3], in assay [4], in assay [5] and in assay [6] was over 100 µM in each case. For the same compound, the TGI in assay [7] and in assay [8] was over 100 µM throughout.

On to `O=C(Nc1ccccc1/C=C/c1n[nH]c2ccccc12)c1ccccc1`, for which the GI50 in assay [1] is 1.09 µM; in assay [2], 1.42 µM; in assay [3], 1.78 µM; in assay [4] it was 1.62 µM; in assay [5], 3.97 µM; in assay [6], 5.26 µM. For the same compound, the GI50 was 4.05 µM in assay [7] and 2.2 µM in assay [8]. In addition, the TGI came out at 11.5 µM in assay [1]; 3.21 µM in assay [2]; 7 µM in assay [3]; 4.23 µM in assay [4]; 16.1 µM in assay [5]; 16.5 µM in assay [6]. For the same compound, the figures for the TGI in assay [7] and in assay [8] were 12 µM and 17.6 µM, respectively.

`C=C1C(=O)O[C@@H]2C[C@@]3(C)CCC[C@H](C)C3=C[C@H]12` (tested in a mixture with another compound): the TGI in assay [1] worked out at 16.6 µM; in assay [2], 3.58 µM; in assay [3], 5.34 µM; in assay [4] it was 15.5 µM; in assay [5], 3.31 µM; in assay [6], 3.44 µM. Also, the TGI stood at 2.42 µM in assay [7] and 5.67 µM in assay [8].

With `Oc1ccc(CCNc2nc3ccccc3c3[nH]c4ccccc4c23)cc1O`, the GI50 in assay [1] was 11 µM; in assay [2], 13.6 µM; in assay [3] it was 3.2 µM; in assay [4], 3.54 µM; in assay [5], 9.27 µM; in assay [6] it was 1.77 µM. The figures for the GI50 in assay [7] and in assay [8] were 2.23 µM and 6.87 µM, respectively. Besides, the TGI in assay [1] came to 24.3 µM; in assay [2] it was 26.5 µM; in assay [3], 11.1 µM; in assay [4] it was 14.1 µM; in assay [5], 21.3 µM; in assay [6], 3.7 µM. The TGI in assay [7] stood at 6.28 µM; in assay [8], 22.7 µM.

As to `COc1cc(-c2csc(NC(=O)Nc3ccc(Cl)cc3)n2)cc(OC)c1OC`, the GI50 in assay [1] is 3.22 µM; in assay [2], 2.24 µM; in assay [3] it was 3.01 µM; in assay [4] it was 3.9 µM; in assay [5], 2.18 µM; in assay [6], 2.54 µM. Also, the GI50 is 2.11 µM in assay [7] and 2.54 µM in assay [8]. Besides, the TGI in assay [1] is 10.7 µM; in assay [2], 8.03 µM; in assay [3] it was 12.4 µM; in assay [4] it was 18.8 µM; in assay [5], 6.26 µM; in assay [6] it was 7.23 µM. Further, the TGI in assay [7] is 6.32 µM; in assay [8] it was 10.9 µM.
